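Cells were grown in 96-well plates and exposed to each compound for 48 hours at five concentrations; endpoints were interpolated linearly between bracketing concentrations, or set to the highest concentration if not reached. GI50: concentration for 50% inhibition of growth. TGI: total growth inhibition.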
Experiments:
Assay in all cases: growth of human tumour cells (NCI), 48 h
[1] = tested on: NCI-H226 lung
[2] = tested on: A549 NSCLC
[3] = tested on: COLO 205 colon
[4] = tested on: MDA-MB-435
[5] = tested on: MALME-3M melanoma
[6] = tested on: HCT-15 colon
[7] = tested on: SF-539 CNS
[8] = tested on: MOLT-4 leukemia
[9] = tested on: HCT-116 colon
[10] = tested on: OVCAR-5 ovarian
[11] = tested on: OVCAR-8 ovarian
[12] = tested on: T-47D breast
[13] = tested on: RXF 393 renal
[14] = tested on: RPMI-8226 leukemia
[15] = tested on: HOP-62 NSCLC
[16] = tested on: UO-31 renal
[17] = tested on: IGROV1 ovarian
[18] = tested on: SK-OV-3 ovarian
[19] = tested on: NCI/ADR-RES ovarian
[20] = tested on: SR leukemia
[21] = tested on: SF-268 CNS
[22] = tested on: UACC-257 melanoma
[23] = tested on: U251 CNS
[24] = tested on: TK-10 renal
[25] = tested on: DU-145 prostate
[26] = tested on: NCI-H522 lung
[27] = tested on: MCF7 breast
[28] = tested on: HL-60(TB) leukemia
[29] = tested on: SN12C renal
[30] = tested on: LOX IMVI melanoma
[31] = tested on: HT29 colon
[32] = tested on: OVCAR-4 ovarian
[33] = tested on: KM12 colon
[34] = tested on: EKVX NSCLC
[35] = tested on: HOP-92 NSCLC
[36] = tested on: NCI-H23 lung
[37] = tested on: SNB-19 CNS
[38] = tested on: OVCAR-3 ovarian
[39] = tested on: SF-295 CNS
[40] = tested on: M14 melanoma
[41] = tested on: SK-MEL-2 melanoma
[42] = tested on: 786-0 renal
[43] = tested on: SNB-75 CNS
[44] = tested on: HS 578T breast
[45] = tested on: NCI-H460 lung
[46] = tested on: CCRF-CEM leukemia
[47] = tested on: ACHN renal
[48] = tested on: BT-549 breast
[49] = tested on: K-562 leukemia
[50] = tested on: HCC-2998 colon
[51] = tested on: PC-3 prostate
[52] = tested on: UACC-62 melanoma
[53] = tested on: CAKI-1 renal
[54] = tested on: MDA-MB-231 breast
[55] = tested on: SW-620 colon
[56] = tested on: SK-MEL-5 melanoma
[57] = tested on: SK-MEL-28 melanoma
[58] = tested on: A498 renal

CCOC(=O)CCC(C(=O)OCC)n1nnc2ccc(Nc3c(C)[n+]([O-])c4cc(Cl)ccc4[n+]3[O-])cc21 (stereo not given)
TGI [1]: 81.5 µM | TGI [2]: > 100 µM | TGI [3]: 35.7 µM | TGI [4]: 40.4 µM | TGI [5]: 35.2 µM | TGI [6]: 58.2 µM | TGI [7]: 39.9 µM | TGI [8]: > 100 µM | TGI [9]: > 100 µM | TGI [10]: > 100 µM | TGI [11]: 55.5 µM | TGI [12]: 44.3 µM | TGI [13]: 60.8 µM | TGI [14]: 47 µM | TGI [15]: > 100 µM | TGI [16]: > 100 µM | TGI [17]: 79 µM | TGI [18]: > 100 µM | TGI [19]: > 100 µM | TGI [20]: > 100 µM | TGI [21]: 55.1 µM | TGI [22]: 30.8 µM | TGI [23]: > 100 µM | TGI [24]: > 100 µM | TGI [25]: > 100 µM | TGI [26]: 47 µM | TGI [27]: 34.3 µM | TGI [28]: 83.5 µM | TGI [29]: 66.9 µM | TGI [30]: 35.7 µM | TGI [31]: 68.9 µM | TGI [32]: 39.1 µM | TGI [33]: 86.7 µM | TGI [34]: > 100 µM | TGI [35]: 38.7 µM | TGI [36]: 69.4 µM | TGI [37]: > 100 µM | TGI [38]: 34.4 µM | TGI [39]: > 100 µM | TGI [40]: 40.2 µM | TGI [41]: 57 µM | TGI [42]: > 100 µM | TGI [43]: > 100 µM | TGI [44]: > 100 µM | TGI [45]: > 100 µM | TGI [46]: > 100 µM | TGI [47]: > 100 µM | TGI [48]: 78.1 µM | TGI [49]: 57.7 µM | TGI [50]: 49.7 µM | TGI [51]: > 100 µM | TGI [52]: 35.1 µM | TGI [53]: > 100 µM

C[C@]12CCC3c4ccc(O)cc4CCC3C1Cc1ccc(O)cc12 (stereo not given in full)
GI50 [1]: 19 µM | TGI [1]: 36.6 µM | GI50 [2]: 13 µM | TGI [2]: 38.4 µM | GI50 [54]: 7.44 µM | TGI [54]: 22.2 µM | GI50 [3]: 12.1 µM | TGI [3]: 26 µM | GI50 [55]: 3.7 µM | TGI [55]: 14.9 µM | GI50 [4]: 2.44 µM | TGI [4]: 11.1 µM | GI50 [5]: 10.8 µM | TGI [5]: 29.1 µM | GI50 [6]: 4.51 µM | TGI [6]: 19 µM | GI50 [7]: 6.08 µM | TGI [7]: 20.8 µM | TGI [8]: 0.478 µM | GI50 [9]: 3.52 µM | TGI [9]: 13.2 µM | GI50 [10]: 14.5 µM | TGI [10]: 27.6 µM | GI50 [11]: 15.8 µM | TGI [11]: 33.8 µM | GI50 [12]: 13.1 µM | TGI [12]: 30.9 µM | GI50 [14]: 3.75 µM | TGI [14]: 18 µM | GI50 [16]: 11.8 µM | TGI [16]: 28.7 µM | GI50 [17]: 9.72 µM | TGI [17]: 26.1 µM | GI50 [18]: 14.3 µM | TGI [18]: 36.4 µM | GI50 [19]: 2.35 µM | TGI [19]: 6.74 µM | GI50 [56]: 4.85 µM | TGI [56]: 16.8 µM | GI50 [21]: 11.4 µM | TGI [21]: 44.2 µM | GI50 [22]: 14.4 µM | TGI [22]: 28.5 µM | GI50 [23]: 5.24 µM | TGI [23]: 17.4 µM | GI50 [24]: 13.6 µM | TGI [24]: 40.2 µM | GI50 [25]: 11.5 µM | TGI [25]: 28.5 µM | GI50 [26]: 3.5 µM | TGI [26]: 12.8 µM | GI50 [57]: 8.72 µM | TGI [57]: 22.7 µM | GI50 [27]: 4.83 µM | TGI [27]: 17.8 µM | GI50 [58]: 6.18 µM | TGI [58]: 19.7 µM | GI50 [28]: 1.08 µM | TGI [28]: 3.29 µM | GI50 [29]: 11.8 µM | TGI [29]: 25.8 µM | GI50 [30]: 6.53 µM | TGI [30]: 21.3 µM | GI50 [31]: 6.13 µM | TGI [31]: 20.6 µM | GI50 [32]: 15.3 µM | TGI [32]: 92.7 µM | GI50 [33]: 3.4 µM | TGI [33]: 20.6 µM | GI50 [34]: 6.24 µM | TGI [34]: 18.9 µM | GI50 [35]: 12.7 µM | TGI [35]: 27.9 µM | GI50 [37]: 10.6 µM | TGI [37]: 22.7 µM | GI50 [38]: 5.71 µM | TGI [38]: 26.5 µM | GI50 [39]: 12.8 µM | TGI [39]: 34.2 µM | GI50 [40]: 3.8 µM | TGI [40]: 13.6 µM | GI50 [41]: 11 µM | TGI [41]: 26.3 µM | GI50 [42]: 5.22 µM | TGI [42]: 18.1 µM | GI50 [43]: 6.35 µM | TGI [43]: 31.2 µM | GI50 [44]: 5.87 µM | TGI [44]: 42.6 µM | GI50 [45]: 4.88 µM | TGI [45]: 18.2 µM | GI50 [46]: 4.14 µM | TGI [46]: 17.2 µM | GI50 [47]: 10.4 µM | TGI [47]: 22.3 µM | GI50 [48]: 6.57 µM | TGI [48]: 23.4 µM | GI50 [49]: 0.794 µM | TGI [49]: 11.2 µM | GI50 [50]: 5.44 µM | TGI [50]: 18.4 µM | GI50 [51]: 7.25 µM | TGI [51]: 22.4 µM | GI50 [52]: 5.25 µM | TGI [52]: 17.1 µM | GI50 [53]: 10.8 µM | TGI [53]: 45.6 µM

Source: PubChem BioAssay (NCI)
